Reference: article PMC12655172, “Borylated 5-Membered Ring Iminosugars: Synthesis and Biological Evaluation for Glycosidase Inhibition and Anticancer Properties for Application in Boron Neutron Capture Therapy (BNCT)—Part 2” (Pharmaceuticals, 2025)

Experiments:
[1] = Sample appearance on sample preparation in water; assay type: physicochemical; details: 1 mL of water was added to 1 mg solid
[2] = test system: T1, trehalase (porcine kidney); assay: Glycosidase inhibition (Table 2 panel); assay type: biochemical
T1 construct: purchased Sigma-Aldrich; host or cells: porcine kidney
From the text: (§1) The enzymes α-D-glucosidase (yeast), β-D-glucosidases (almond, bovine liver), α-D-galactosidase (coffee beans), β-D-galactosidase (bovine liver), α-D-mannosidase (Jack bean), β-D-mannosidase (snail), α-L-rhamnosidase (P. decumbens), α-L-fucosidase (bovine kidney), trehalase (porcine kidney), β-D-glucuronidases (E. coli, bovine liver), amyloglucosidase (A. niger), para-nitrophenyl glycosides, and various disaccharides were purchased from Sigma-Aldrich Co (St. Louis, MO, USA).
(§2) Brush border membranes were prepared from the rat small intestine according to the method of Kessler et al., and were assayed at pH 6.8 for rat intestinal maltase using maltose. For rat intestinal maltase, porcine kidney trehalase, and A. niger amyloglucosidase activities, the reaction mixture contained maltose ([…]) and the appropriate amount of enzyme, and the incubations were performed for 10–30 min at 37 °C. The reaction was stopped by heating at 100 °C for 3 min. After centrifugation (600 g; 10 min), the resulting reaction mixture was added to the Glucose CII-test Wako (Wako Pure Chemical Ind., Osaka, Japan). The absorbance at 505 nm was measured to determine the amount of the released D-glucose. Other glycosidase activities were determined using an appropriate para-nitrophenyl glycoside as substrate at the optimum pH of each enzyme. The reaction mixture contained the substrate ([…]) and the appropriate amount of enzyme. The reaction was stopped by the addition of Na2CO3 ([…]). The released para-nitrophenol was measured spectrometrically at 400 nm. All reactions were run in […].

[3] = test system: α-D-glucosidase (rat intestinal maltase); assay: Glycosidase inhibition (Table 2 panel); assay type: biochemical
From the text: as §1, §2

[4] = test system: α-L-rhamnosidase (P. decumbens); assay: Glycosidase inhibition (Table 2 panel); assay type: biochemical
From the text: as §1, §2

α-D-glucosidase (rice) = α-D-glucosidase (rice) (Oryza sativa subsp. japonica, UniProt Q653V7); assay: Glycosidase inhibition (Table 2 panel); assay type: biochemical
Sequence of α-D-glucosidase (rice) (Q653V7 34-885): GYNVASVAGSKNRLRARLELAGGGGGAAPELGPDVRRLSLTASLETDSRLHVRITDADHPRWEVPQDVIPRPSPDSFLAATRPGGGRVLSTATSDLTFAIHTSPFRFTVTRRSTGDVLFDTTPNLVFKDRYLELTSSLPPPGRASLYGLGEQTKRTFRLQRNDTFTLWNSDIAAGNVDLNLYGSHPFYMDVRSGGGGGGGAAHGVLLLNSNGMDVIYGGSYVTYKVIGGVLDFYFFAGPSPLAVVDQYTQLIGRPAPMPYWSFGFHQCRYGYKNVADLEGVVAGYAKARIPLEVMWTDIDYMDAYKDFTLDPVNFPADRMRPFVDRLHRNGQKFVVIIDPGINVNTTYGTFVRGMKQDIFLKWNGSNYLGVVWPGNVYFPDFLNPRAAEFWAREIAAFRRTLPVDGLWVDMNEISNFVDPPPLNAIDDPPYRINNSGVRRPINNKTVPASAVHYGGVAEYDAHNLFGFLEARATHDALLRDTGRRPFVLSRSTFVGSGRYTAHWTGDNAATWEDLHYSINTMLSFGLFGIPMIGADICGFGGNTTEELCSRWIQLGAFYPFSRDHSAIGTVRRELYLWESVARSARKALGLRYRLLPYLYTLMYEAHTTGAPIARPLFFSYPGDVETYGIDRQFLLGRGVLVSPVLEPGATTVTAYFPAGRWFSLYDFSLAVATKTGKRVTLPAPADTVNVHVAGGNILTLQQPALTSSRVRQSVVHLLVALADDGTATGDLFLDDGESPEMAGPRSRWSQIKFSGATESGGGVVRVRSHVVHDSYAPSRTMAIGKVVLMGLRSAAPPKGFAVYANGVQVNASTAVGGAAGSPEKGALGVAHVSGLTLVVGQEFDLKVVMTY
From the text: as §1, §2

β-D-glucosidase (almond) = assay: Glycosidase inhibition (Table 2 panel); assay type: biochemical
From the text: as §1, §2

β-D-mannosidase (snail) = assay: Glycosidase inhibition (Table 2 panel); assay type: biochemical
From the text: as §1, §2

[5] = test system: T2, α-D-mannosidase (Jack bean); assay: Glycosidase inhibition (Table 2 panel); assay type: biochemical
T2 construct: purchased Sigma-Aldrich; host or cells: Jack bean
From the text: as §1, §2

[6] = target: T3, β-D-glucosidase (bovine liver) (Bos taurus, UniProt F1MNT6); assay: Glycosidase inhibition (Table 2 panel); assay type: biochemical
T3 sequence (F1MNT6 1-469): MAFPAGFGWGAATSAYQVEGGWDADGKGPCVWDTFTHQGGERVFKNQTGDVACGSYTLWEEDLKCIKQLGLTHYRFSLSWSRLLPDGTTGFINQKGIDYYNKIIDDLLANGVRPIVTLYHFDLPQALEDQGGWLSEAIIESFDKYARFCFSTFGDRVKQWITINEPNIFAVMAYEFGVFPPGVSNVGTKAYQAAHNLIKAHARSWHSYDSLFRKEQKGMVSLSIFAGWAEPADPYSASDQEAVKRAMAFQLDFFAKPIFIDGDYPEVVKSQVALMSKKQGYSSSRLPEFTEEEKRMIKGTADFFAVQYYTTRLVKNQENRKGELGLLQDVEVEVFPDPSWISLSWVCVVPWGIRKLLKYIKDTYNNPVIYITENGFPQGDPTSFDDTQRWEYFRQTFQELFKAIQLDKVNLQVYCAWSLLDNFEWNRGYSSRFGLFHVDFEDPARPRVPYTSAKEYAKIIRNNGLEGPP
From the text: as §1, §2

[7] = test system: T4, α-D-galactosidase (coffee beans); assay: Glycosidase inhibition (Table 2 panel); assay type: biochemical
T4 construct: purchased Sigma-Aldrich; host or cells: coffee beans
From the text: as §1, §2

[8] = test system: β-D-glucuronidase (bovine liver); assay: Glycosidase inhibition (Table 2 panel); assay type: biochemical
From the text: as §1, §2

A431 (skin carcinoma) = assay: Cancer screening, MTT growth inhibition; assay type: cell-based; details: Homo sapiens; for inhibition at 25 µM: A-431, 25 µM of drug, 72 h, read-out: DOSE SCREEN percentage (%) cell growth inhibition A431 Skin; for GI50: A-431, 72 h, read-out: DOSE RESPONSE GI50 A431 Skin
Experimental: (§3) For Table 4, all test agents were prepared as stock solutions ([…]) in dimethyl sulfoxide (DMSO) and stored at −20 °C. Cell lines used in the study included HT29 (colorectal carcinoma), A2780 (ovarian carcinoma), H460 (lung carcinoma), A431 (skin carcinoma), MiaPaCa-2 (pancreatic carcinoma), and SMA560 (spontaneous murine astrocytoma), together with MCF10A (non-tumour derived normal breast cell line). Cell line sources: the HT29, H460, and MiaPaCa-2, together with MCF10A were purchased from ATCC. The A2780 and A431 were purchased from the European Collection of Cell Culture (ECACC). All cell lines were incubated in a humidified atmosphere 5% CO2 at 37 °C. The cancer cell lines were maintained in Dulbecco’s modified Eagle’s medium (DMEM; Sigma, Truganina, Australia) supplemented with foetal bovine serum (10%), sodium pyruvate ([…]), penicillin (100 IUmL^−1), streptomycin (100 µg mL^−1), and L-glutamine ([…]).
(§4) Growth inhibition was determined by plating cells in duplicate in medium (100 µL) at a density of 2500–4000 cells per well in 96-well plates. On day 0 (24 h after plating), when the cells are in logarithmic growth, medium (100 µL) with or without the test agent was added to each well. […] Each data point is the mean ± the standard error of the mean (SEM) calculated from three replicates which were performed on separate occasions and separate cell line passages.

[9] = test system: A2780 (ovarian carcinoma); assay: Cancer screening, MTT growth inhibition; assay type: cell-based; details: Homo sapiens; for inhibition at 25 µM: A2780, 25 µM of drug, 72 h, read-out: DOSE SCREEN percentage (%) cell growth inhibition A2780 Ovarian; for GI50: A2780, 72 h, read-out: DOSE RESPONSE GI50 A2780 Ovarian
Experimental: as §3, §4

[10] = test system: HT29 (colorectal carcinoma); assay: Cancer screening, MTT growth inhibition; assay type: cell-based; details: Homo sapiens; for inhibition at 25 µM: HT-29, 25 µM of drug, 72 h, read-out: DOSE SCREEN percentage (%) cell growth inhibition HT29 Colon; for GI50: HT-29, 72 h, read-out: DOSE RESPONSE GI50 HT29 Colon
Experimental: as §3, §4

H460 (lung carcinoma) = assay: Cancer screening, MTT growth inhibition; assay type: cell-based; details: Homo sapiens; for inhibition at 25 µM: NCI-H460, 25 µM of drug, 72 h, read-out: DOSE SCREEN percentage (%) cell growth inhibition H460 Lung; for GI50: NCI-H460, 72 h, read-out: DOSE RESPONSE GI50 H460 Lung
Experimental: as §3, §4

[11] = listed as of the 1000 μM series

Compound | Sample Appearance [1] | inhibition % Trehalase Porcine Kidney ([2]; at 100 μM) | inhibition % Trehalase Porcine Kidney ([2]; at 1000 μM) | inhibition % α-D-Glucosidase Rat Intestinal Maltase ([3]; at 100 μM) | inhibition % α-L-Rhamnosidase P. decumbens ([4]; at 100 μM) | inhibition at 100 µM (α-D-glucosidase (rice)) | inhibition % β-D-Glucosidase Almond (β-D-glucosidase (almond); at 100 μM) | inhibition % β-D-Glucosidase Almond (β-D-glucosidase (almond); at 1000 μM) | inhibition % β-D-Mannosidase Snail (β-D-mannosidase (snail); at 100 μM) | inhibition % β-D-Mannosidase Snail (β-D-mannosidase (snail); at 1000 μM) | inhibition % α-D-Mannosidase Jack Bean ([5]; at 100 μM) | inhibition % α-D-Mannosidase Jack Bean ([5]; at 1000 μM) | inhibition at 100 µM [6] | inhibition at 1000 µM [6] | inhibition % α-D-Galactosidase Coffee Beans ([7]; at 100 μM) | inhibition % α-D-Galactosidase Coffee Beans ([7]; at 1000 μM) | inhibition % β-D-Glucuronidase Bovine Liver ([8]; at 100 μM) | inhibition % β-D-Glucuronidase Bovine Liver ([8]; at 1000 μM) | inhibition at 25 µM (A431 (skin carcinoma)) | GI50 (A431 (skin carcinoma)) | further results
OC[C@H](O)[C@@H]1[C@H](O)[C@H](O)CN1Cc1cccc(B(O)O)c1 [meta 4, N-(3-Methylphenylboronic acid)-1,4-dideoxy-1,4-imino-L-gulitol] | In solution | ^cNI ^d(0.8%) | ^aNI ^b(3.4%) | ^cNI ^d(22.8%) | ^cNI ^d(8.3%) | 8% | ^cNI ^d(0.6%) | ^aNI ^b(43%) | ^cNI ^d(0%) | ^aNI ^b(0%) | ^cNI ^d(0%) | ^aNI ^b(0%) | 0% | 37.9% | ^cNI ^d(1.1%) | ^aNI ^b(3.7%) | ^cNI ^d(0%) | ^aNI ^b(14.7%) | 6 ± 1% | > 50 µM | IC50 [3, 11]: 588 µM; IC50 (α-D-glucosidase (rice); [11]): 106 µM; inhibition at 25 µM [9]: 18 ± 5%; GI50 [9]: > 50 µM; inhibition at 25 µM [10]: < 0%; GI50 [10]: > 50 µM; inhibition at 25 µM (H460 (lung carcinoma)): 7 ± 1%; GI50 (H460 (lung carcinoma)): > 50 µM
CC1(C)O[C@H]2O[C@H]3[C@@H]([C@H]2O1)N(Cc1ccccc1B1OC(C)(C)C(C)(C)O1)C[C@H]3O [ortho 2, N-(2-Methylphenylboronic acid pinacol ester)-3,6-dideoxy-3,6-imino-1,2-O-isopropylidene-α-D-gulofuranose] | In solution | ^cNI ^d(5.6%) | ^aNI ^b(1.8%) | ^cNI ^d(15.5%) | ^cNI ^d(1.5%) | 0% | ^cNI ^d(35%) | ^aNI ^b(7.2%) | ^cNI ^d(0%) | ^aNI ^b(7.8%) | ^cNI ^d(9.4%) | ^aNI ^b(1.3%) | 4.9% | 19.7% | ^cNI ^d(0%) | ^aNI ^b(2.9%) | ^cNI ^d(2.2%) | ^aNI ^b(8.4%) | 10 ± 5% | > 50 µM | inhibition % α-D-Glucosidase Rat Intestinal Maltase ([3]; at 1000 μM): ^aNI ^b(0%); inhibition % α-L-Rhamnosidase P. decumbens ([4]; at 1000 μM): ^aNI ^b(2.0%); inhibition at 1000 µM (α-D-glucosidase (rice); at 1000 μM): 0%; inhibition at 25 µM [9]: 7 ± 2%; GI50 [9]: > 50 µM; inhibition at 25 µM [10]: 7%; GI50 [10]: > 50 µM; inhibition at 25 µM (H460 (lung carcinoma)): 11 ± 4%; GI50 (H460 (lung carcinoma)): > 50 µM
